Test system: FMDV of O-type
Details: guinea pig, in vivo

## RNase: recombinant / wild-type human RNase I (Examples 22, 30, 31)
  resistance to FMD on repeated infection: resistant to FMD following subsequent repeated infection

Source: US10335372B2, “Compositions with modified nucleases targeted to viral nucleic acids and methods of use for prevention and treatment of viral diseases” (priority 2004, dated 2019)
